The subject of experiment [1] is albino Swiss mice. The experiment is described as follows: Passive avoidance test in mice. It is filed as in vivo, mouse. The following applies: compared to the vehicle control; BacoMind 40, 60 and 80 mg/kg p.o. 7 days; piracetam 100 mg/kg i.p.; scopolamine 0.3 mg/kg i.p. The method, then: (§1) Forty two albino Swiss mice (20-22 g) of either sex obtained from National Toxicology Centre, Pune were used for the study. The animals were acclimatized for a week and maintained under standard laboratory conditions, given free access to feed (Source: Laboratory prepared) and water, ad libitum.
Six albino Swiss mice of either sex were randomly allotted to each group. Group I served as the vehicle control. Group II, III and IV received BacoMind™ orally at the doses of 40, 60 and 80 mg/kg for 7 days. Piracetam was administered to group V (100 mg/kg, i.p, single dose, on 7th day 20 min before first trial) and served as the reference standard control. Group VI was administered with scopolamine (0.3 mg/kg, i.p, single dose, on 7th day 20 min before first trial) and served as the amnesia control. Group VII was administered both with BacoMind™ (60 mg/kg, p.o, for 7 days) and scopolamine (0.3 mg/kg, i.p, single dose, on 7th day 30 min after BacoMind™ treatment). Mice were placed individually on the electric grid and allowed to explore for one minute. A stimulus of 20 V with AC current of 5 mA was given and latency to reach SFZ was recorded for three consecutive times and considered as basal reading. After 1 h of the first trial, each animal was placed on the electric grid again and the latency to reach SFZ and the mistakes (descents) the animal made in 15 min were recorded and considered as parameters for acquisition and retention respectively.

In experiment [2] the test system is albino Swiss mice. In words: Elevated plus maze (EPM) test in mice. Format: in vivo, mouse. The following applies: scopolamine 0.3 mg/kg i.p. single dose, compared to the vehicle control. The method, then:
as §1
Six albino Swiss mice of either sex were randomly allotted to each group. Group I served as the vehicle control. […] Piracetam was administered to group V (100 mg/kg, i.p, single dose on 7th day, 30 min before recording transfer latency) and served as the reference standard control. Group VI was administered with scopolamine (0.3 mg/kg, i.p, single dose on 7th day, 30 min before recording transfer latency) and served as the amnesia control group. […] The mice were placed individually at the end of open arm of the EPM facing away from the center. The time taken by the mouse to move into the enclosed arm was noted as transfer latency (TL). The mice were treated with the test substance/drugs as shown in the study design. […] After determination of the TL, mice were allowed to explore the maze for 2 min and then transferred to their home cages. The TL was again measured after 24 h i.e on […]. The TL was expressed as inflexion ratio.

Consider `NC(=O)CN1CCCC1=O` [piracetam, Piracetam], for which, in the experiment on albino Swiss mice [1], the “latency to reach SFZ” value is “significantly decreased” and the “number of mistakes in 15 min” value is given as “significantly decreased”.
In the case of `CN1[C@@H]2C[C@@H](OC(=O)[C@H](CO)c3ccccc3)C[C@H]1[C@@H]1O[C@@H]12` [scopolamine], in the experiment with albino Swiss mice [1], the “latency to reach SFZ” value is given as “significant increase”. For the same molecule, in the experiment with albino Swiss mice [2], the inflexion ratio result is recorded as “significant decrease”.

The record behind these values is patent US20090192097A1, “Synergistic Herbal Composition from Bacopa Species for Management of Neurodegenerative Disorders and a Process of Preparation Thereof” (priority 2006, published 2009).
